Laboratory results taken from patent US7425631B2 (Amgen Inc., priority 2003, dated 2008).
pIC50: −log10 of the molar value.

Biological target: T1, human B1 receptor (Homo sapiens, UniProt P46663)
T1 construct: expressed in transfected cells
T1 sequence (P46663 1-353): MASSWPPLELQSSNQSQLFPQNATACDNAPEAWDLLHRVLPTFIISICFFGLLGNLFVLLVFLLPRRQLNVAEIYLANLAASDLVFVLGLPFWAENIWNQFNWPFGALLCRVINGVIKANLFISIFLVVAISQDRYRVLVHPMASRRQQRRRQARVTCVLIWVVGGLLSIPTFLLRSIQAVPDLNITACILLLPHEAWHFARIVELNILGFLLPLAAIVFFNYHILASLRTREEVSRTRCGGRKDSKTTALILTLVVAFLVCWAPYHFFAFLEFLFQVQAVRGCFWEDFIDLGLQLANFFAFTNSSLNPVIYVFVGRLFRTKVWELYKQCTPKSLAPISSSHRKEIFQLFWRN
Assay: In vitro assay of human B1 receptor function using calcium flux (aequorin luminescence)
Type: cell-based
Conditions: CHO D-/hB1/Aequorin cells, agonist 20 nM des-Arg10-Kallidin (EC80); read-out: binding IC50's to hB1 receptor function
Protocol: Activation of the Gq linked B1 receptor results in an increase in intracellular calcium. […] Aequorin is a 21-kDa photoprotein that forms a bioluminescent complex when linked to the chromophore cofactor coelenterazine.
Following coelenterazine incubation, an automated flash-luminometer platform was used to dispense the B1 antagonist compounds (dissolved in DMSO and diluted with buffer to the desired concentration (final DMSO concentration <1% DMSO)) to the cell plate, a CCD camera situated underneath the cell plate took 12 images of the cell plate at 5 second intervals to determine if there was any agonist activity with the compounds. The hB1 agonist, des-Arg10-Kallidin, was added to the cell plate and another 12 images were recorded to determine the IC50 of the antagonist(s).

Row | SMILES | pIC50
1 | C=C(CN1CC[C@H](O)C1)c1ccc2c(c1)CCC[C@H]2NC(=O)C[C@@H](NS(=O)(=O)c1cccc(C(F)(F)F)c1)c1ccccc1 [Example 218j, (3R)-N-((1R)-6-(1-(((3S)-3-hydroxy-1-pyrrolidinyl)methyl)ethenyl)-1,2,3,4-tetrahydro-1-naphthalenyl)-3-phenyl-3-(((3-(trifluoromethyl)phenyl)sulfonyl)amino)propanamide] | > 8.00
2 | CC(C)(C)NCc1ccc2c(c1)OCC[C@H]2NC(=O)C[C@@H](NS(=O)(=O)c1cc(C(F)(F)F)ccc1Cl)c1ccc(F)cc1 [ej, N-[7-(tert-Butylamino-methyl)-chroman-4-yl]-3-(2-chloro-5-trifluoromethyl-benzenesulfonylamino)-3-(4-fluoro-phenyl)-propionamide] | > 8.00
3 | O=C(C[C@@H](NS(=O)(=O)c1ccc(Cl)c(Cl)c1)c1ccccc1)N[C@@H]1CCOc2cc(CN3CCCCC3)ccc21 [Example 168, (3R)-3-(((3,4-Dichlorophenyl)sulfonyl)amino)-3-phenyl-N-((4R)-7-(1-piperidinylmethyl)-3,4-dihydro-2H-chromen-4-yl)propanamide] | > 8.00
4 | CN1c2cc(CN3CCCCC3)ccc2[C@@H](NC(=O)C[C@@H](NS(=O)(=O)c2ccc3ccccc3c2)c2ccccc2)CS1(=O)=O [Example 175, (3R)-N-((4R)-1-Methyl-2,2-dioxido-7-(1-piperidinylmethyl)-3,4-dihydro-1H-2,1-benzothiazin-4-yl)-3-((2-naphthalenylsulfonyl)amino)-3-phenylpropanamide] | > 8.00
5 | O=C(C[C@@H](NS(=O)(=O)c1cccc(C(F)(F)F)c1)c1cccc(F)c1)N[C@@H]1CCCc2cc(CN3CCCCC3)ccc21 [dq, 3-(3-Fluoro-phenyl)-N-(6-piperidin-1-ylmethyl-1,2,3,4-tetrahydro-naphthalen-1-yl)-3-(3-trifluoromethyl-benzenesulfonylamino)-propionamide] | > 8.00
6 | C=C(CN1CCCCC1)c1ccc2c(c1)CCC[C@H]2NC(=O)C[C@@H](NS(=O)(=O)c1cccc(C(F)(F)F)c1)c1ccccc1 [Example 218r, (3R)-3-phenyl-N-((1R)-6-(1-(1-piperidinylmethyl)ethenyl)-1,2,3,4-tetrahydro-1-naphthalenyl)-3-(((3-(trifluoromethyl)phenyl)sulfonyl)amino)propanamide] | > 8.00
7 | O=C(C[C@@H](NS(=O)(=O)c1ccc(Cl)c(Cl)c1)c1ccc(F)cc1)N[C@@H]1CCCc2cc(CN3CCCCC3)ccc21 [bz, 3-(3,4-Dichloro-benzenesulfonylamino)-3-(4-fluoro-phenyl)-N-(6-piperidin-1-ylmethyl-1,2,3,4-tetrahydro-naphthalen-1-yl)-propionamide] | > 8.00
8 | CC(C)(C)NCc1ccc2c(c1)CCC[C@H]2NC(=O)C[C@@H](NS(=O)(=O)c1cccc(C(F)(F)F)c1)c1cccc([N+](=O)[O-])c1 [cx, N-[6-(tert-Butylamino-methyl)-1,2,3,4-tetrahydro-naphthalen-1-yl]-3-(3-nitro-phenyl)-3-(3-trifluoromethyl-benzenesulfonylamino)-propionamide] | > 8.00
9 | O=C(C[C@@H](NS(=O)(=O)c1cccc(C(F)(F)F)c1)c1ccccc1)N[C@@H]1CCCc2cc(CN3CCC(F)(F)CC3)ccc21 [t, (3R)-N-((1R)-6-((4,4-difluoro-1-piperidinyl)methyl)-1,2,3,4-tetrahydro-1-naphthalenyl)-3-phenyl-3-(((3-(trifluoromethyl)phenyl)-sulfonyl)amino)propanamide] | > 8.00
10 | CC(C)(C)c1ccc(S(=O)(=O)N[C@H](CC(=O)N[C@@H]2CCCc3cc(CNC4CCC4)ccc32)c2ccc(F)cc2)cc1 [de, 3-(4-tert-Butyl-benzenesulfonylamino)-N-(6-cyclobutylaminomethyl-1,2,3,4-tetrahydro-naphthalen-1-yl)-3-(4-fluoro-phenyl)-propionamide] | > 8.00

Next, values leading:

Row | pIC50 | SMILES
11 | > 8.00 | CC(C)(C)NCc1ccc2c(c1)CCC[C@H]2NC(=O)C[C@H](NS(=O)(=O)c1cccc(C(F)(F)F)c1)c1ccc(F)cc1 [a, (3S)-N-((1R)-6-(((1,1-dimethylethyl)amino)-methyl)-1,2,3,4-tetrahydro-1-naphthalenyl)-3-(4-fluorophenyl)-3-(((3-(trifluoromethyl)phenyl)-sulfonyl)amino)propanamide]
12 | > 8.00 | O=C(C[C@@H](NS(=O)(=O)c1ccc2ccccc2c1)c1ccccc1)N[C@H]1CCc2cc(CN3CCCCC3)ccc21 [Example 176, (3R)-3-((2-Naphthalenylsulfonyl)amino)-3-phenyl-N-((1S)-5-(1-piperidinylmethyl)-2,3-dihydro-1H-inden-1-yl)propanamide]
13 | > 8.00 | CC(C)(C)NCc1ccc2c(c1)CCC[C@H]2NC(=O)C[C@@H](NS(=O)(=O)c1ccc(Cl)c(Cl)c1)c1ccc(F)cc1 [cj, N-[6-(tert-Butylamino-methyl)-1,2,3,4-tetrahydro-naphthalen-1-yl]-3-(3,4-dichloro-benzenesulfonylamino)-3-(4-fluoro-phenyl)-propionamide]
14 | > 8.00 | CC(C)CNCc1ccc2c(c1)OCC[C@H]2NC(=O)C[C@@H](NS(=O)(=O)c1cccc(C(F)(F)F)c1)c1ccc(F)cc1 [cl, 3-(4-Fluoro-phenyl)-N-[7-(isobutylamino-methyl)-chroman-4-yl]-3-(3-trifluoromethyl-benzenesulfonylamino)-propionamide]
15 | > 8.00 | O=C(C[C@@H](NS(=O)(=O)c1ccc(Cl)c(Cl)c1)c1ccccc1)N[C@@H]1CCOc2cc(CN3CCOCC3)ccc21 [Example 169, (3R)-3-(((3,4-Dichlorophenyl)sulfonyl)amino)-N-((4R)-7-(4-morpholinylmethyl)-3,4-dihydro-2H-chromen-4-yl)-3-phenylpropanamide]
16 | > 8.00 | CC(C)(C)NCc1ccc2c(c1)CCC[C@H]2NC(=O)C[C@@H](NS(=O)(=O)c1ccc(Cl)c(Cl)c1)c1ccccc1 [bm, (3R)-3-(((3,4-dichlorophenyl)sulfonyl)amino)-N-((1R)-6-(((1,1-dimethylethyl)amino)methyl)-1,2,3,4-tetrahydro-1-naphthalenyl)-3-phenylpropanamide]
17 | > 8.00 | O=C(CC(NS(=O)(=O)c1cccc(C(F)(F)F)c1)c1cc(Cl)cc(Cl)c1)N[C@@H]1CCCc2cc(CN3CCCCC3)ccc21 (stereo partly drawn) [fb, 3-(3,5-Dichloro-phenyl)-N-(6-piperidin-1-ylmethyl-1,2,3,4-tetrahydro-naphthalen-1-yl)-3-(3-trifluoromethyl-benzenesulfonylamino)-propionamide]
18 | > 8.00 | O=C(C[C@@H](NS(=O)(=O)c1cccc(C(F)(F)F)c1)c1ccc(F)cc1)N[C@@H]1CCCc2cc(CNC3CCCC3)ccc21 [n, (3R)-N-((1R)-6-((cyclopentylamino)methyl)-1,2,3,4-tetrahydro-1-naphthalenyl)-3-(4-fluorophenyl)-3-(((3-(trifluoromethyl)phenyl)sulfonyl)-amino)propanamide]
19 | > 8.00 | COCCNCc1ccc2c(c1)OCC[C@H]2NC(=O)C[C@@H](NS(=O)(=O)c1ccc(Cl)c(Cl)c1)c1ccc(F)cc1 [ce, 3-(3,4-Dichloro-benzenesulfonylamino)-3-(4-fluoro-phenyl)-N-{7-[(2-methoxy-ethylamino)-methyl]-chroman-4-yl}-propionamide]
20 | > 8.00 | Cc1c(S(=O)(=O)N[C@H](CC(=O)NC2CCCc3cc(CNC(C)(C)C)ccc32)c2ccccc2)sc2ccc(Cl)cc12 (stereo partly drawn) [ad, (3R)-3-(((5-chloro-3-methyl-1-benzothien-2-yl)sulfonyl)amino)-N-(6-(((1,1-dimethylethyl)amino)methyl)-1,2,3,4-tetrahydro-1-naphthalenyl)-3-phenylpropanamide]
21 | > 8.00 | CC(C)(C)NCc1ccc2c(c1)CCC[C@H]2NC(=O)C[C@H](NS(=O)(=O)c1cccc(C(F)(F)F)c1)c1ccc([N+](=O)[O-])cc1 [em, N-[6-(tert-Butylamino-methyl)-1,2,3,4-tetrahydro-naphthalen-1-yl]-3-(4-nitro-phenyl)-3-(3-trifluoromethyl-benzenesulfonylamino)-propionamide]
22 | > 8.00 | O=C(C[C@@H](NS(=O)(=O)c1cccc(C(F)(F)F)c1)c1ccc(F)cc1)N[C@@H]1CCCc2cc(CN3CCCC3)ccc21 [o, (3R)-3-(4-fluorophenyl)-N-((1R)-6-(1-pyrrolidinylmethyl)-1,2,3,4-tetrahydro-1-naphthalenyl)-3-(((3-(trifluoromethyl)phenyl)sulfonyl)-amino)propanamide]
23 | > 8.00 | CC(C)(C)c1ccc(S(=O)(=O)N[C@H](CC(=O)N[C@@H]2CCCc3cc(CN4CCCCC4)ccc32)c2ccc(F)cc2)cc1 [dh, 3-(4-tert-Butyl-benzenesulfonylamino)-3-(4-fluoro-phenyl)-N-(6-piperidin-1-ylmethyl-1,2,3,4-tetrahydro-naphthalen-1-yl)-propionamide]
24 | > 8.00 | O=C(C[C@@H](NS(=O)(=O)c1cccc(C(F)(F)F)c1)c1ccccc1)N[C@@H]1CCCc2cc(CN3CC=CCC3)ccc21 [am, (3R)-N-((1R)-6-(3,6-dihydro-1(2H)-pyridinylmethyl)-1,2,3,4-tetrahydro-1-naphthalenyl)-3-phenyl-3-(((3-(trifluoromethyl)phenyl)sulfonyl)amino)propanamide]
